Values of other authors in patent US20100197666A1, “(THIO) -CARBAMOYL-CYCLOHEXANE DERIVATIVES AND METHOD FOR TREATING SCHIZOPHRENIA” (priority 2007, published 2010).

Tests used:
Conditions in all cases: background statement; cited from earlier work
[1] = target: histamine H1 (Homo sapiens, UniProt P35367)
[2] = system: adrenergic receptor sites
[3] = target: 5-HT2C (Homo sapiens, UniProt P28335)
Sequence of 5-HT2C (P28335 33-458, species assumed): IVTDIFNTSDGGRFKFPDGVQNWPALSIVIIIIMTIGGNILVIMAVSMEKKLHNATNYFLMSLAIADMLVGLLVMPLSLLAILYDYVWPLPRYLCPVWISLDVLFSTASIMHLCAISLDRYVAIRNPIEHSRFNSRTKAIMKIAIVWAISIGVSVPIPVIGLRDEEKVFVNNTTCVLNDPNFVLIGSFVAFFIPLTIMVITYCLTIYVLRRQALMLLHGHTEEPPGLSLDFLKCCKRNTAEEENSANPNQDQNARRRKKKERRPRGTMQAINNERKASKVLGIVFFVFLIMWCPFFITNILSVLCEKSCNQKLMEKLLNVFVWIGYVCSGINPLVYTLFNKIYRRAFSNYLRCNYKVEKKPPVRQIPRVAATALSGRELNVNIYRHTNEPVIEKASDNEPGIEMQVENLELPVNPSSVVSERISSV

Sequence of histamine H1 (P35367 whole entry): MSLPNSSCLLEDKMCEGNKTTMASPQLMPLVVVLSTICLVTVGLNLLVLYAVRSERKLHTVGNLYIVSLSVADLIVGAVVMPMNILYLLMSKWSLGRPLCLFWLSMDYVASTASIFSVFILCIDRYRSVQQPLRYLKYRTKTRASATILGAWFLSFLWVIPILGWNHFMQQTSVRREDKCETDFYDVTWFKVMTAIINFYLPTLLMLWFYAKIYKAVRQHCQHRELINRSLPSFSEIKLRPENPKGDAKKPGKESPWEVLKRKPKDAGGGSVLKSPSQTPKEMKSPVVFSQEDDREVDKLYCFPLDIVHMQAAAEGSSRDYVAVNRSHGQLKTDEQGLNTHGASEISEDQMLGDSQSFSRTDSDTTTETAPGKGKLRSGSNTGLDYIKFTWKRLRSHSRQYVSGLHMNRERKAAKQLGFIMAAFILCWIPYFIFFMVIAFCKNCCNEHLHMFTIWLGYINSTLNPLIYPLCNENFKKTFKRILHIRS

CN(C)C(=O)NC1CCC(CCN2CCN(c3cccc(Cl)c3Cl)CC2)CC1.Cl (stereo not drawn) [trans-4-{2-[4-(2,3-dichlorophenyl)-piperazin-1-yl]-ethyl}-N,N-dimethylcarbamoyl-cyclohexylamine hydrochloride]
low potency: potency at histamine H1 receptor site [1] | potency at adrenergic receptor sites [2] | potency at 5-HT2C receptor site [3]
